Data from patent US20240262826A1, “WILD TYPE KIT INHIBITORS” (Blueprint Medicines Corporation, priority 2022, published 2024).

Columns and labels:
[1] = biological target: human P-glycoprotein (P-gp, MDR1) (Homo sapiens (Human), UniProt P08183); assay: MDCK-MDR1 cell monolayer drug transport assay (P-gp efflux ratio); assay type: in vitro ADME; settings: pH 7.4, MDCK-MDR1 cells, 1 uM concentration of compound, read-out: Pgp Efflux Ratio, 1 uM
Protocol: The potential for compounds prepared according to the examples to be substrates of P-gp was evaluated using in vitro on Multidrug Resistance Mutation 1-Mardin-Darby Canine Kidney (MDCK-MDR1)) (Mardin-Darby Canine Kidney) cell monolayers overexpressing P-gp grown on permeable supports.
Preparation for cell seeding: MDCK-MDR1 cell culture medium consisting of Dulbecco's Modified Eagle's Medium (DMEM) with high glucose and L-glutamine supplemented with: 10% FBS, 0.1 mg/mL of streptomycin, 0.6 μg/mL of Kanamycin sulfate and 100 units of penicillin was prepared. 50 μL of culture medium was added to each well of the Transwell insert. The Transwell insert was removed from the reservoir and 25 mL of culture medium was added. After incubation at 37° C., 5% CO2 for 1 hour, the plates were ready for cell seeding. The cells were cultivated in T-75 flasks in a cell culture incubator set at 37° C., 5% CO2, 95% relative humidity until they reached 80-90% confluence before detaching and splitting. The cultivated cells were rinsed in T-75 flasks with 5 mL PBS and aspirated off, and then 1.5 mL trypsin/EDTA was added and incubated at 37° C. for approximately 5 to 10 minutes or until the cells detach and float. The trypsin/EDTA was inactived by adding excess serum containing medium. The cell suspension was transferred to a conical tube and the cells pelleted by centrifugation at 120×g for 10 minutes. The cells were resuspended in seeding medium at a density of 1.56×10^6 cells/mL. This cell concentration was used to seed 5.45×10^5 cells/cm^2.
Seeding and feeding of MDCK-MDR1 cells into transwell plates: 50 μL of the above cell suspension was added to each well of a previously prepared Transwell plate and the plate was incubated for 4-8 days, replacing the medium every other day beginning no sooner than 48 hours after initial plating. The medium must be replaced on the day before conducting the experiment, and the procedure for medium changes was carried out as follows. The plate was removed from the incubator and placed in a hood. The medium was aspirated from a reservoir and each Transwell was inserted. 100 μL of culture medium was added to each well of the Transwell inserts and 25 mL of culture medium to reservoir tray. The plate was returned to the incubator.
Assessment of cell monolayer integrity: When the 4-day cultured MDCK-MDR1 cells reached confluence and were differentiated, the medium was removed from the reservoir and Transwell inserts. 100 μL of prewarmed culture medium was added to each transwell insert and 25 mL was added to the reservoir tray. The electrical resistance across the monolayer was measured using a Millicell Epithelial Volt-Ohm measuring system. The electrical resistance for each well was measured and then the plate was returned to the incubator. TEER values were calculated using this formula: TEER measurement (ohms)×Area of membrane (cm2)=TEER value (ohm cm2). Any monolayer with a TEER value <42 ohms·cm2, indicating poor monolayer formation, was discarded.
Performing the drug transport assay: The MDCK-MDR1 plate was removed from the incubator and the monolayer was washed, exchanging the volume two times using pre-warmed HBSS (Hank's balanced salt solution) (10 mM HEPES, pH 7.4). The plate was then incubated at 37° C. for 30 minutes. A 1 μM compound working solution was prepared as follows: Added […] of stock solution (10 mM in DMSO) of test compound and control compounds (Metoprolol, Prazosin and Imatinib) in one 96 well plate, then added 98 μL of DMSO into the same well to obtain 0.2 mM stock solutions (note a stock solution was further diluted 1:10 for eventually making a 0.1 uM compound working solution). Transfered 3 μL of 0.2 mM solution into 597 μL of transport buffer in one 96 well plate to prepare the 1 μM compound working solution. The plate was shaken at 1000 rpm for 10 min.

[2] = biological target: wild type c-kit (Homo sapiens (Human), UniProt P10721); assay: PathScan phospho c-kit (Tyr719) sandwich ELISA in SCF-stimulated M-07e cells (pKIT assay); assay type: cell-based; settings: ELISA assay (values not marked *)
wild type c-kit, sequence (P10721 26-976): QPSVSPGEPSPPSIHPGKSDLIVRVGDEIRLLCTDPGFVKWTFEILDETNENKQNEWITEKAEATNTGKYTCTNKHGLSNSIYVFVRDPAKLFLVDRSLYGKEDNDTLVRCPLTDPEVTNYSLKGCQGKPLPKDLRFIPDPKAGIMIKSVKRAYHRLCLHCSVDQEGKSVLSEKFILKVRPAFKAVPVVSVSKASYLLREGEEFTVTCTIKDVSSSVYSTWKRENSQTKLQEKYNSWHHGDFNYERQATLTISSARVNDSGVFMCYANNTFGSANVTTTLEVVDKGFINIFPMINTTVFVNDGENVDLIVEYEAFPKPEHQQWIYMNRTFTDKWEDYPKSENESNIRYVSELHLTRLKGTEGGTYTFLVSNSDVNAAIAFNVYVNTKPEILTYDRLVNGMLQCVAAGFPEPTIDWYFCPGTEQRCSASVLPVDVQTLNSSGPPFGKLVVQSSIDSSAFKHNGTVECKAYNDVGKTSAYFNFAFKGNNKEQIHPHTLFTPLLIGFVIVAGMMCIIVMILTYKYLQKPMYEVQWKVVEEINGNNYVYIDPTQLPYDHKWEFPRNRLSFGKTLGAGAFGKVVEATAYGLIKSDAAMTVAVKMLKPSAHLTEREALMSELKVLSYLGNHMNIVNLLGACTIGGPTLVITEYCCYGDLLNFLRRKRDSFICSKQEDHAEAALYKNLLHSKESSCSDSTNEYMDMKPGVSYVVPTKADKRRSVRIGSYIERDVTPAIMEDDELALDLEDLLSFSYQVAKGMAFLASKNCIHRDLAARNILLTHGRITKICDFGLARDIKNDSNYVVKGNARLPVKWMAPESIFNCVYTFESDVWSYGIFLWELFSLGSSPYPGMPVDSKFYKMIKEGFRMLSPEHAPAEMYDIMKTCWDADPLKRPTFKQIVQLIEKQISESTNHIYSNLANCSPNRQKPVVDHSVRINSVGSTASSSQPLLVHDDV
Outline: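 Tyr719-phosphorylated c-kit was measured by colorimetric (TMB) sandwich ELISA in lysates of M-07e cells. Cells were starved 4 h without serum or GM-CSF, dosed 60 min at 37 °C with compound (8 points, duplicate, 0.25% DMSO), and stimulated 10 min with human SCF (500 ng/mL as added). IC50 values came from 4-parameter logistic regression.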

human P-glycoprotein (P-gp, MDR1), sequence (P08183 whole entry): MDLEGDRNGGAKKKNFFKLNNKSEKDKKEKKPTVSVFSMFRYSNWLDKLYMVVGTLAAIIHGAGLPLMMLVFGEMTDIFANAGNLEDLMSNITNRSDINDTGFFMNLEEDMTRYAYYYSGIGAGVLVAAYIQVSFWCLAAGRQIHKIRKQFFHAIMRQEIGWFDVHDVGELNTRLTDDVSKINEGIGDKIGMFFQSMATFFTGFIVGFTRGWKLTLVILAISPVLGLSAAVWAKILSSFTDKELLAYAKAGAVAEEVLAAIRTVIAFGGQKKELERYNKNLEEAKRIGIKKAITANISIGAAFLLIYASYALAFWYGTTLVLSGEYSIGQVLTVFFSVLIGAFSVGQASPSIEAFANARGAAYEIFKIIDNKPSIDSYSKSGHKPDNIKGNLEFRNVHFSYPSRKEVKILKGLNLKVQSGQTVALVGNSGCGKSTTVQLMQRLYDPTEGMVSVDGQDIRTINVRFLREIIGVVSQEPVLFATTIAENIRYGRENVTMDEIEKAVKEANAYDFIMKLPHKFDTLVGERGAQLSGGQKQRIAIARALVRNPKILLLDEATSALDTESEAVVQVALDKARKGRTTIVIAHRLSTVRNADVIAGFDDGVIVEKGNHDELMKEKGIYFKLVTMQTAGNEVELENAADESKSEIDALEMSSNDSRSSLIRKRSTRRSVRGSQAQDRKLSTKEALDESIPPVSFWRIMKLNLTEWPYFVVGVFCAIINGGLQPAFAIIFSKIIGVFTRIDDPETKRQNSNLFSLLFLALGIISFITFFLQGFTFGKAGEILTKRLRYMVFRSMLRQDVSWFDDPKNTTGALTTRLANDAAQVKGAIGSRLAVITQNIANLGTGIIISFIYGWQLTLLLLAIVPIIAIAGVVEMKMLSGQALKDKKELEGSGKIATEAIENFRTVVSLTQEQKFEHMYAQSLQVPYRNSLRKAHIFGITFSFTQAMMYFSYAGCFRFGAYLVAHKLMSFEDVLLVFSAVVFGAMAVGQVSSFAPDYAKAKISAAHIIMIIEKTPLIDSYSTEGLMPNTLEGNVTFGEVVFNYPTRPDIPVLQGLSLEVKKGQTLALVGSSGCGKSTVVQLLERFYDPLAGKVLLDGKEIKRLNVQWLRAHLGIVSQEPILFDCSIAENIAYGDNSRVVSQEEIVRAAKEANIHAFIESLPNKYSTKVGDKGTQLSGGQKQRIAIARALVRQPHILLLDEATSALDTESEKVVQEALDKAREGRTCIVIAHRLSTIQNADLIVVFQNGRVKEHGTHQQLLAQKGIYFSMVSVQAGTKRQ

Structure (SMILES) | efflux ratio at 2 h, 1 µM [1] | IC50 [2] [nM]
Cc1ccc(-c2nnn(C)n2)cc1NC(=O)c1cnn2ccc(-c3cnn(C[C@@H](C)O)c3)cc12 (mixture of isomers) [Example 53, (R)-5-(1-(2-hydroxypropyl)-1H-pyrazol-4-yl)-N-(2-methyl-5-(2-methyl-2H-tetrazol-5-yl)phenyl)pyrazolo[1,5-a]pyridine-3-carboxamide and (S)-5-(1-(2-hydroxypropyl)-1H-pyrazol-4-yl)-N-(2-methyl-5-(2-methyl-2H-tetrazol-5-yl)phenyl)pyrazolo[1,5-a]pyridine-3-carboxamide] | 10.9 | 1.5
Cc1ccc(-n2nnc([C@@H]3CC3(F)F)n2)cc1NC(=O)c1cnn2ccc(-c3cnn(CCO)c3)cc12 (single isomer, unassigned) [Example 233, (S)-N-(5-(5-(2,2-difluorocyclopropyl)-2H-tetrazol-2-yl)-2-methylphenyl)-5-(1-(2-hydroxyethyl)-1H-pyrazol-4-yl)pyrazolo[1,5-a]pyridine-3-carboxamide or (R)-N-(5-(5-(2,2-difluorocyclopropyl)-2H-tetrazol-2-yl)-2-methylphenyl)-5-(1-(2-hydroxyethyl)-1H-pyrazol-4-yl)pyrazolo[1,5-a]pyridine-3-carboxamide] | 6.3 | 2.2
COC[C@@](C)(O)Cn1cc(-c2ccn3ncc(C(=O)Nc4cc(-c5nnn(C6CC6)n5)ccc4C)c3c2)cn1 (single isomer, unassigned) [Example 268, (S)-N-(5-(2-cyclopropyl-2H-tetrazol-5-yl)-2-methylphenyl)-5-(1-(2-hydroxy-3-methoxy-2-methylpropyl)-1H-pyrazol-4-yl)pyrazolo[1,5-a]pyridine-3-carboxamide or (R)-N-(5-(2-cyclopropyl-2H-tetrazol-5-yl)-2-methylphenyl)-5-(1-(2-hydroxy-3-methoxy-2-methylpropyl)-1H-pyrazol-4-yl)pyrazolo[1,5-a]pyridine-3-carboxamide] | 5.2 | 1.6
Cc1ccc(-c2nnn(CCOCC(F)(F)F)n2)cc1NC(=O)c1cnn2ccc(-c3cn[nH]c3)cc12 [Example 197, N-(2-methyl-5-(2-(2-(2,2,2-trifluoroethoxy)ethyl)-2H-tetrazol-5-yl)phenyl)-5-(1H-pyrazol-4-yl)pyrazolo[1,5-a]pyridine-3-carboxamide] | 41 | 
Cc1cnn(-c2ccc(C)c(NC(=O)c3cnn4ccc(-c5cnn(C[C@H]6CNCCO6)c5)cc34)c2)n1 [Example 205, (R)—N-(2-methyl-5-(4-methyl-2H-1,2,3-triazol-2-yl)phenyl)-5-(1-(morpholin-2-ylmethyl)-1H-pyrazol-4-yl)pyrazolo[1,5-a]pyridine-3-carboxamide] | 33.1 | 
Cc1nn(C[C@H](O)CO)c(C)c1-c1ccn2ncc(C(=O)Nc3cc(-c4nnn(C5CC5)n4)ccc3Cl)c2c1 [Example 275, (S)-N-(2-chloro-5-(2-cyclopropyl-2H-tetrazol-5-yl)phenyl)-5-(1-(2,3-dihydroxypropyl)-3,5-dimethyl-1H-pyrazol-4-yl)pyrazolo[1,5-a]pyridine-3-carboxamide] |  | 0.1

The next lines start with the values.

efflux ratio at 2 h, 1 µM [1] | IC50 [2] [nM] | Structure (SMILES)
8.4 | 1.4 | Cc1ccc(-c2nnn(C)n2)cc1NC(=O)c1cnn2ccc(-c3cnn(C[C@H](C)O)c3)cc12 (single isomer, unassigned) [Example 54, (S)-5-(1-(2-hydroxypropyl)-1H-pyrazol-4-yl)-N-(2-methyl-5-(2-methyl-2H-tetrazol-5-yl)phenyl)pyrazolo[1,5-a]pyridine-3-carboxamide or (R)-5-(1-(2-hydroxypropyl)-1H-pyrazol-4-yl)-N-(2-methyl-5-(2-methyl-2H-tetrazol-5-yl)phenyl)pyrazolo[1,5-a]pyridine-3-carboxamide]
2.9 | 1.4 | COC[C@](C)(O)Cn1cc(-c2ccn3ncc(C(=O)Nc4cc(-c5nnn(C6CC6)n5)ccc4C)c3c2)cn1 (single isomer, unassigned) [Example 267, (R)-N-(5-(2-cyclopropyl-2H-tetrazol-5-yl)-2-methylphenyl)-5-(1-(2-hydroxy-3-methoxy-2-methylpropyl)-1H-pyrazol-4-yl)pyrazolo[1,5-a]pyridine-3-carboxamide or (S)-N-(5-(2-cyclopropyl-2H-tetrazol-5-yl)-2-methylphenyl)-5-(1-(2-hydroxy-3-methoxy-2-methylpropyl)-1H-pyrazol-4-yl)pyrazolo[1,5-a]pyridine-3-carboxamide]
 | 0.3 | Cc1nn(C(CO)CO)c(C)c1-c1ccn2ncc(C(=O)Nc3cc(-c4nnn(C5CC5)n4)ccc3Cl)c2c1 [Example 276, N-(2-chloro-5-(2-cyclopropyl-2H-tetrazol-5-yl)phenyl)-5-(1-(1,3-dihydroxypropan-2-yl)-3,5-dimethyl-1H-pyrazol-4-yl)pyrazolo[1,5-a]pyridine-3-carboxamide]
 | 0.6 | COC[C@H](O)Cn1cc(-c2ccn3ncc(C(=O)Nc4cc(-c5nnn(C6CC6)n5)c(F)cc4Cl)c3c2)c(C)n1 [Example 279, (R)—N-(2-chloro-5-(2-cyclopropyl-2H-tetrazol-5-yl)-4-fluorophenyl)-5-(1-(2-hydroxy-3-methoxypropyl)-3-methyl-1H-pyrazol-4-yl)pyrazolo[1,5-a]pyridine-3-carboxamide]
 | 0.4 | Cc1nn(C[C@@H](C)O)cc1-c1ccn2ncc(C(=O)Nc3cc(-c4nnn(C5CC5)n4)c(F)cc3Cl)c2c1 [Example 281, (R)—N-(2-chloro-5-(2-cyclopropyl-2H-tetrazol-5-yl)-4-fluorophenyl)-5-(1-(2-hydroxypropyl)-3-methyl-1H-pyrazol-4-yl)pyrazolo[1,5-a]pyridine-3-carboxamide]
 | 0.2 | CCn1nnc(-c2cc(NC(=O)c3cnn4ccc(-c5cn(C[C@H](O)COC)nc5C)cc34)c(Cl)cc2F)n1 [Example 282, (S)—N-(2-chloro-5-(2-ethyl-2H-tetrazol-5-yl)-4-fluorophenyl)-5-(1-(2-hydroxy-3-methoxypropyl)-3-methyl-1H-pyrazol-4-yl)pyrazolo[1,5-a]pyridine-3-carboxamide]
 | 0.7 | CCn1nnc(-c2cc(NC(=O)c3cnn4ccc(-c5cn(C[C@H](O)COCCOC)nc5C)cc34)c(Cl)cc2F)n1 [Example 283, (S)—N-(2-chloro-5-(2-ethyl-2H-tetrazol-5-yl)-4-fluorophenyl)-5-(1-(2-hydroxy-3-(2-methoxyethoxy)propyl)-3-methyl-1H-pyrazol-4-yl)pyrazolo[1,5-a]pyridine-3-carboxamide]
 | 1 | COCCOC[C@@H](O)Cn1cc(-c2ccn3ncc(C(=O)Nc4cc(-c5nnn(C6CC6)n5)c(F)cc4Cl)c3c2)c(C)n1 [Example 285, (S)—N-(2-chloro-5-(2-cyclopropyl-2H-tetrazol-5-yl)-4-fluorophenyl)-5-(1-(2-hydroxy-3-(2-methoxyethoxy)propyl)-3-methyl-1H-pyrazol-4-yl)pyrazolo[1,5-a]pyridine-3-carboxamide]
